Test results: patent US20010023254A1, “Use of sulfamate derivatives for treating impulse control disorders” (priority 2000, published 2001)
“Also recorded” adds a separate entry of the source.

Tests used:
[1] = test system: Patients with Overeating, Overweight, and Obesity; assay: Patients with overeating, overweight and obesity treated clinically with topiramate; type: in vivo, human
Method: (§1) In the examples, patients were treated with open-label topiramate starting at 25 mg/qHS and the dosage increased by the patient in 25 mg increments as tolerated by the subjects until a response is seen up to a maximum of 1200 mg. [table]

[2] = test system: patients who coincidentally had binge eating disorder; assay: Clinical studies of topiramate in mood disorders; patients who coincidentally had binge eating disorder; type: in vivo, human; details: several mood disorder patients with coincident binge eating disorder
Source text: The activity of the compounds of formula I in treating ICD's was first evidenced in clinical studies conducted to evaluate the efficacy of topiramate in treating mood disorders.

[3] = test system: Patients with Binge Eating Disorder (BED); assay: Patients with Binge Eating Disorder (BED) treated clinically with open-label topiramate; type: in vivo, human
Method: as §1

[4] = test system: patients with epilepsy; details: cited from earlier work
[5] = test system: Persons with bulimia nervosa; details: cited from earlier work
[6] = Pt 5, first trial, max dose 250 mg/day
[7] = Pt 5, second trial, max dose 200 mg/day
[8] = Pt 5, first trial, max dose 100 mg/day
[9] = Pt 5, second trial, max dose 100 mg/day

SMILES: CC1(C)O[C@@H]2[C@@H](CO[C@@]3(COS(N)(=O)=O)OC(C)(C)O[C@@H]23)O1 [Topiramate, 2,3;4,5-bis-O-(1-methylethylidene)-beta -D-fructopyranose sulfamate]
- Loss of weight ([1]; Pt 1, max dose 700 mg/day): 9 lbs
- Response of BD (Bipolar Disorder) ([1]; Pt 1, max dose 700 mg/day): No response of BD
- Loss of weight ([1]; Pt 2, max dose 300 mg/day): 16 lbs
- Response of BD (Bipolar Disorder) ([1]; Pt 2, max dose 300 mg/day): Remission of BD
- Response of overeating ([1]; Pt 2, max dose 300 mg/day): Remission of overeating
- Loss of weight ([1]; Pt 3 ADJ, max dose 400 mg/day): 7 lbs
- Response of BD (Bipolar Disorder) ([1]; Pt 3 ADJ, max dose 400 mg/day): Moderate improvement of BD
- Response of overeating ([1]; Pt 3 ADJ, max dose 400 mg/day): Moderate improvement of overeating
- Loss of weight ([1]; Pt 4, max dose 350 mg/day): 5 lbs
- Response of BD (Bipolar Disorder) ([1]; Pt 4, max dose 350 mg/day): No response of BD
- Response of overeating ([1]; Pt 4, max dose 350 mg/day): Mild improvement in overeating
- Loss of weight [1, 6]: 7 lbs
- Response of BD (Bipolar Disorder) [1, 6]: First Trial: Worsening of BD
- Response of overeating [1, 6]: Mild decrease of overeating
- Body weight, before-after [1, 7]: 154-155 lbs
- Gain of weight [1, 7]: 1 lb
- Response of overeating [1, 7]: Mild decrease of overeating
- Loss of weight ([1]; Pt 6, max dose 800 mg/day): 9 lbs
- Response of BD (Bipolar Disorder) ([1]; Pt 6, max dose 800 mg/day, BD in remission at start): Worsening of BD
- Discontinuation and its reason (adverse effects) ([1]; Pt 7 NLR, max dose 300 mg/day): Discontinued due to anorexia
- Loss of weight ([1]; Pt 7 NLR, max dose 300 mg/day): 46 lbs
- Response of BD (Bipolar Disorder) ([1]; Pt 7 NLR, max dose 300 mg/day): Worsening of BD
- Loss of weight ([1]; Pt 8 PR, max dose 700 mg/day): 19 lbs
- Reason for discontinuation (adverse effects) ([1]; Pt 8 PR, max dose 700 mg/day): G.I. Distress
- Response of BD (Bipolar Disorder) ([1]; Pt 8 PR, max dose 700 mg/day): Moderate improvement of BD
- Response of overeating ([1]; Pt 8 PR, max dose 700 mg/day): Marked improvement in overeating
- Binging, as reported by patients [2]: marked reduction in their binging
- Weight, as reported by patients [2]: concurrent loss in weight
- Loss of weight ([3]; Pt 1, max dose 1200 mg/day): Loss of 107 lbs.
- Response of BD (Bipolar Disorder) ([3]; Pt 1, max dose 1200 mg/day): Remission of BD
- Response of BED (Binge Eating Disorder) ([3]; Pt 1, max dose 1200 mg/day): Remission of BED
- Discontinuation and its reason (adverse effects) ([3]; Pt 2, max dose 150 mg/day): Discontinued due to sedation,; also recorded: cognitive dulling
- Loss of weight ([3]; Pt 2, max dose 150 mg/day): Loss of 5 lbs.
- Response of BD (Bipolar Disorder) ([3]; Pt 2, max dose 150 mg/day): Mild improvement of BD,
- Response of BED (Binge Eating Disorder) ([3]; Pt 2, max dose 150 mg/day): Moderate decrease of BED,
- Loss of weight ([3]; Pt 3, max dose 1200 mg/day): Loss of 50.5 lbs
- Response of BD (Bipolar Disorder) ([3]; Pt 3, max dose 1200 mg/day): Moderate improvement of BD.
- Response of BED (Binge Eating Disorder) ([3]; Pt 3, max dose 1200 mg/day): Remission of BED
- Loss of weight ([3]; Pt 4, max dose 900 mg/day): Loss of 30.5 lbs.
- Response of BD (Bipolar Disorder) ([3]; Pt 4, max dose 900 mg/day): Moderate improvement of BD,
- Response of BED (Binge Eating Disorder) ([3]; Pt 4, max dose 900 mg/day): Marked improvement of BED,
- Discontinuation and its reason (adverse effects) [3, 8]: discontinued due to GI distress
- Response of BED (Binge Eating Disorder) [3, 8]: First trial: No response of BED,
- Loss of weight [3, 9]: Loss of 11 lbs.
- Response of BED (Binge Eating Disorder) [3, 9]: Remission of BED
- Response of Compulsive Buying [3, 9]: Remission of Compulsive
- Response of BD (Bipolar Disorder) ([3]; Pt 5, second trial, max dose 100 mg/day, BD in remission at start): Second Trial: Worsening of BD
- Response of BED (Binge Eating Disorder) ([3]; Pt 6, max dose 100 mg/day): No response of BED
- Weight change ([3]; Pt 6, max dose 100 mg/day): No weight change
- Efficacy in simple and complex partial seizures and secondarily generalized seizures ([4]; clinical trials of human epilepsy, adjunctive therapy or monotherapy): effective
- Effect on appetite ([4]; controlled trials in patients with epilepsy): suppression of appetite
- Effect on weight ([4]; controlled trials in patients with epilepsy, unrelated to binge eating): weight loss

SMILES: O=C1NC(=O)C(c2ccccc2)(c2ccccc2)N1 [phenytoin]
- Binge eating [5]: reduced binge eating
